Source: ChEMBL document CHEMBL1156755, “Discovery of (Z)-5-(4-methoxybenzylidene)thiazolidine-2,4-dione, a readily available and orally active glitazone for the treatment of concanavalin A-induced acute liver injury of BALB/c mice” (J Med Chem, 2010)
Active and inactive are the calls of the source. The rule behind the calls is not given here.

Columns and labels:
RAW264.7 [1] = experiment: Inhibition of MCP1-induced chemotaxis in mouse RAW264.7 cells at 25 ug/mL relative to control; format: functional
Mus musculus [2] = experiment: Effect on serum alanine aminotransaminase level in concanavalin A-induced acute hepatitis model of BALB/c mouse at 50 mg/kg, po treated 0.5 hrs after concanavalin A challenge measured after 20 hrs (Rvb= 5734.5 +/- 2599.5); format: functional
Mus musculus [3] = experiment: Decrease in concanavalin A-induced hepatic cell necrosis in acute hepatitis model of BALB/c mouse at 50 mg/kg, ig treated 0.5 hrs after concanavalin A challenge measured after 20 hrs by H and E staining based histopathology study; format: functional, organism-based; parameters: dose 50 mg/kg
Mus musculus [4] = experiment: Effect on serum aspartate aminotransaminase level in concanavalin A-induced acute hepatitis model of BALB/c mouse at 50 mg/kg, po treated 0.5 hrs after concanavalin A challenge measured after 20 hrs (Rvb= 4997.9 +/- 2619.6); format: functional
RAW264.7 [5] = experiment: Inhibition of MCP1-induced chemotaxis in mouse RAW264.7 cells; format: functional, cell-based
[6] = Half life in BALB/c mouse at 30 mg/kg, po; format: ADME, organism-based; parameters: dose 30 mg/kg, route oral; details: in vivo
Mus musculus [7] = experiment: Toxicity in BALB/c mouse assessed as pathological changes in lung at 50 mg/kg, ig after 20 hrs by H and E staining based histopathology study; format: organism-based; parameters: dose 50 mg/kg, route intragastric; details: in vivo, po
Mus musculus [8] = experiment: Toxicity in BALB/c mouse assessed as pathological changes in spleen at 50 mg/kg, ig after 20 hrs by H and E staining based histopathology study; format: organism-based; parameters: dose 50 mg/kg, route intragastric; details: in vivo, po
Mus musculus [9] = experiment: Toxicity in BALB/c mouse liver assessed as change in transaminase level at 50 mg/kg, ig after 20 hrs by H and E staining based histopathology study; format: organism-based; parameters: dose 50 mg/kg, route intragastric; details: in vivo, po
Mus musculus [10] = experiment: Plasma concentration in BALB/c mouse at 30 mg/kg, po; format: ADME, organism-based; parameters: dose 30 mg/kg, route oral; details: in vivo
[11] = Oral bioavailability in BALB/c mouse at 30 mg/kg; format: ADME, organism-based; details: in vivo
Mus musculus [12] = experiment: Toxicity in BALB/c mouse assessed as pathological changes in kidney at 50 mg/kg, ig after 20 hrs by H and E staining based histopathology study; format: organism-based; parameters: dose 50 mg/kg, route intragastric; details: in vivo, po
Mus musculus [13] = experiment: Toxicity in BALB/c mouse assessed as pathological changes in heart at 50 mg/kg, ig after 20 hrs by H and E staining based histopathology study; format: organism-based; parameters: dose 50 mg/kg, route intragastric; details: in vivo, po
Mus musculus [14] = experiment: Toxicity in BALB/c mouse assessed as pathological changes in liver at 50 mg/kg, ig after 20 hrs by H and E staining based histopathology study; format: organism-based; parameters: dose 50 mg/kg, route intragastric; details: in vivo, po
[15] = Tmax in BALB/c mouse at 30 mg/kg, po; format: ADME, organism-based; parameters: dose 30 mg/kg, route oral; details: in vivo

Structure (SMILES) | inhibition at 25 µg/mL (RAW264.7 [1]) [%] | further results
N=C1NC(=O)/C(=C/c2ccc(Cl)cc2)S1 | 13 | –
COc1ccc(/C=C2\CC(=O)NC2=O)cc1 | 13.3 | –
O=C1NC(=O)C(=Cc2cccc(O)c2)C(=O)N1 | 15 | –
O=C1NC(=O)/C(=C/c2cccc(O)c2)N1 | 4.4 | –
CN(C)c1ccc(/C=C2\SC(=O)NC2=O)cc1 | 15.8 | –
O=C1NC(=O)/C(=C/c2ccc(Br)cc2)N1 | 14 | –
N=C1NC(=O)/C(=C/c2ccc(Br)cc2)S1 | 16.6 | –
CN(C)c1ccc(/C=C2\CC(=O)NC2=O)cc1 | 15.7 | –
COc1ccc(/C=C2\NC(=O)NC2=O)cc1 | 19.9 | –
CN(C)c1ccc(/C=C2\NC(=O)NC2=O)cc1 | 18.6 | –
N=C1NC(=O)/C(=C/c2ccccc2)S1 | 10.1 | –
COc1ccc(/C=C2\SC(=N)NC2=O)cc1OC | 9.4 | –
COc1cc(/C=C2\NC(=O)NC2=O)ccc1O | 16.6 | –
COc1cc(C=C2C(=O)NC(=S)NC2=O)ccc1O | 14.4 | –
COc1ccc(C=C2C(=O)NC(=S)NC2=O)cc1OC | 14.2 | –
COc1ccc(C=C2C(=O)NC(=S)NC2=O)cc1 | 27.4 | Activity (Mus musculus [2]): 3141.2 U/L; Activity (Mus musculus [3]): Active; Activity (Mus musculus [4]): 2109.7 U/L; IC50 (RAW264.7 [5]): 11.2 µM
COc1cc(C=C2C(=O)NC(=O)NC2=O)ccc1O | 4.1 | –
O=C1NC(=O)C(=Cc2ccc(Br)cc2)C(=O)N1 | 5.7 | –
COc1cc(/C=C2\SC(=N)NC2=O)ccc1O | 19.9 | –
N=C1NC(=O)/C(=C/c2ccc(O)cc2)S1 [MIRIN] | 4.4 | –
O=C1NC(=O)/C(=C/c2cccc(O)c2)S1 | 14.4 | –
O=C1NC(=O)/C(=C/c2ccc3nccnc3c2)S1 | 36.9 | Activity (Mus musculus [2]): 1187.5 U/L; Activity (Mus musculus [4]): 1084.5 U/L; IC50 (RAW264.7 [5]): 5.31 µM
COc1ccc(/C=C2\NC(=O)NC2=O)cc1OC | 8.7 | –
O=C1NC(=O)C(=Cc2ccccc2)C(=O)N1 | 5.7 | –
O=C1NC(=O)C(=Cc2ccccc2O)C(=O)N1 | 5.8 | –
O=C1C/C(=C\c2ccc(Cl)cc2)C(=O)N1 | 17.9 | –

Structure (SMILES) | inhibition at 25 µg/mL (RAW264.7 [1]) [%] | further results
O=C1NC(=S)NC(=O)C1=Cc1ccc(Br)cc1 | 4.3 | –
COc1ccc(C=C2C(=O)NC(=O)NC2=O)cc1OC | 14.2 | –
O=C1NC(=S)NC(=O)C1=Cc1ccccc1 | 10.2 | –
O=C1NC(=O)/C(=C/c2ccc(O)cc2)S1 | 25.1 | –
COc1cc(/C=C2\CC(=O)NC2=O)ccc1O | 39.5 | Activity (Mus musculus [2]): 3304.1 U/L; Activity (Mus musculus [4]): 3126.9 U/L; IC50 (RAW264.7 [5]): 20.5 µM
O=C1NC(=S)NC(=O)C1=Cc1ccc(O)cc1 | 14.2 | –
CN(C)c1ccc(/C=C2\SC(=N)NC2=O)cc1 | 14 | –
O=C1C/C(=C\c2ccc(Br)cc2)C(=O)N1 | 14.3 | –
O=C1NC(=S)NC(=O)C1=Cc1ccccc1O | 8.9 | –
COc1ccc(/C=C2\SC(=O)NC2=O)cc1OC | 16.6 | –
COc1cc(/C=C2\SC(=O)NC2=O)ccc1O | 15.8 | –
O=C1NC(=O)/C(=C/c2ccccc2)S1 | 16.9 | –
O=C1NC(=O)C(=Cc2ccc(Cl)cc2)C(=O)N1 | 4.1 | –
COc1ccc(/C=C2\SC(=N)NC2=O)cc1 | 18.6 | –
O=C1C/C(=C\c2ccc(O)cc2)C(=O)N1 | 8.4 | –
CN(C)c1ccc(C=C2C(=O)NC(=S)NC2=O)cc1 | 35.7 | Activity (Mus musculus [2]): 2930.2 U/L; Activity (Mus musculus [3]): Active; Activity (Mus musculus [4]): 2072.8 U/L; IC50 (RAW264.7 [5]): 7.2 µM
O=C1NC(=S)NC(=O)C1=Cc1cccc(O)c1 | 5.7 | –
COc1ccc(C=C2C(=O)NC(=O)NC2=O)cc1 | 6.2 | –
O=C1NC(=O)C(=Cc2ccc(O)cc2)C(=O)N1 | 4.3 | –
O=C1C/C(=C\c2ccccc2)C(=O)N1 | 5.7 | –
O=C1NC(=O)/C(=C/c2ccc(Br)cc2)S1 | 16.9 | –
CN(C)c1ccc(C=C2C(=O)NC(=O)NC2=O)cc1 | 6.2 | –
O=C1NC(=S)NC(=O)C1=Cc1ccc(Cl)cc1 | 4.1 | –
O=C1C/C(=C\c2cccc(O)c2)C(=O)N1 | 11.4 | –
O=C1NC(=O)/C(=C/c2ccc(O)cc2)N1 [4-HYDROXYPHENYLMETHYLENE HYDANTOIN] | 13 | –
COc1ccc(/C=C2\SC(=O)NC2=O)cc1 | 57.8 | Activity (Mus musculus [2]): 677.7 U/L; half-life [6]: 3.37 h; Activity (Mus musculus [7]): Non-toxic; Activity (Mus musculus [8]): Non-toxic; Activity (Mus musculus [9]): Non-toxic; Cp (Mus musculus [10]): 4980 ng/mL; bioavailability [11]: 14.9%; Activity (Mus musculus [12]): Non-toxic; Activity (Mus musculus [3]): Active; Activity (Mus musculus [13]): Non-toxic; Activity (Mus musculus [14]): Non-toxic; Activity (Mus musculus [4]): 620 U/L; Tmax [15]: 0.5 h; IC50 (RAW264.7 [5]): 0.72 µM
